According to article PMC7909954 (eLife, 2021):

How the values were obtained:
mMOR = mMOR (Mus musculus, UniProt P42866); assay: cell-based; design: expressed in transfected cells; host or cells: HEK-293T
α2C-adrenoreceptors = biological target: T1, α2C-adrenoreceptors (Homo sapiens, UniProt P18825); assay: Radioligand binding counter-screen (NIMH PDSP)
T1 construct: NIMH Psychoactive Drug Screening Program
T1 sequence (P18825 1-462): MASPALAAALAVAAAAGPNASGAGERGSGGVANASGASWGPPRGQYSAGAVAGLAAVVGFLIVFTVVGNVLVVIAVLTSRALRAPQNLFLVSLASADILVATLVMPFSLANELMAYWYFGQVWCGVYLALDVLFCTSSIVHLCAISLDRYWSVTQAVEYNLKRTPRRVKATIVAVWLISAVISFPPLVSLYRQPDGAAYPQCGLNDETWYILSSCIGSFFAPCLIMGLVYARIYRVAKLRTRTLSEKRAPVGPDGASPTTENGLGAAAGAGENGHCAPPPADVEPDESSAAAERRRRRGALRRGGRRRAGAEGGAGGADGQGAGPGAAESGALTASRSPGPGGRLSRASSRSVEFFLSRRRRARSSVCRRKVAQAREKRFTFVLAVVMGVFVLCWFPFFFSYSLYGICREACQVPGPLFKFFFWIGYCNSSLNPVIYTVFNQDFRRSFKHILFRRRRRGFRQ

MOR [1] = biological target: T2, MOR (Homo sapiens, UniProt P35372); assay: Radioligand binding counter-screen (NIMH PDSP); design: NIMH Psychoactive Drug Screening Program
DOR = DOR (Homo sapiens, UniProt P41143); assay: cell-based
MOR [2] = biological target: T2, MOR; assay: cell-based

T2 sequence (P35372 whole entry): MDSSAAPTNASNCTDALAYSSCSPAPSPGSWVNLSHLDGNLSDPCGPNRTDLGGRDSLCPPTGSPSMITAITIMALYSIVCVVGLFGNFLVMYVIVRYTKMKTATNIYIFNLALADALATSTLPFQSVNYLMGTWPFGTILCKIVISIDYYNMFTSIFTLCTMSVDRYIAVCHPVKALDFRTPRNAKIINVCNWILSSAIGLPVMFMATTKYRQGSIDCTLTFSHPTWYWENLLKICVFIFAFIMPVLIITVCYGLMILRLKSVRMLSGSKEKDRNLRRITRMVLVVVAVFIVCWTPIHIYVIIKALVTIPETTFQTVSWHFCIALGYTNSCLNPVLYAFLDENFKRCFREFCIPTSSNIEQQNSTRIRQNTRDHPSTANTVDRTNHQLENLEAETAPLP
DOR, sequence (P41143 whole entry): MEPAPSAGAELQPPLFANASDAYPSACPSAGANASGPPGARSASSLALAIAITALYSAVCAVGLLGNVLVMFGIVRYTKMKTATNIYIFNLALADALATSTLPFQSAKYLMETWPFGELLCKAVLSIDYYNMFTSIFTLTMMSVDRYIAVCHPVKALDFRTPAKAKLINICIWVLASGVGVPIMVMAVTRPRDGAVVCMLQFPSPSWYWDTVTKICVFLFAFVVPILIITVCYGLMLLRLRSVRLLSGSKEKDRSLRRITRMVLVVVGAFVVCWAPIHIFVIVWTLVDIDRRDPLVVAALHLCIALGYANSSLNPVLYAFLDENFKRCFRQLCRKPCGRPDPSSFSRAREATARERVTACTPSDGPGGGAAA
mMOR, sequence (P42866 whole entry): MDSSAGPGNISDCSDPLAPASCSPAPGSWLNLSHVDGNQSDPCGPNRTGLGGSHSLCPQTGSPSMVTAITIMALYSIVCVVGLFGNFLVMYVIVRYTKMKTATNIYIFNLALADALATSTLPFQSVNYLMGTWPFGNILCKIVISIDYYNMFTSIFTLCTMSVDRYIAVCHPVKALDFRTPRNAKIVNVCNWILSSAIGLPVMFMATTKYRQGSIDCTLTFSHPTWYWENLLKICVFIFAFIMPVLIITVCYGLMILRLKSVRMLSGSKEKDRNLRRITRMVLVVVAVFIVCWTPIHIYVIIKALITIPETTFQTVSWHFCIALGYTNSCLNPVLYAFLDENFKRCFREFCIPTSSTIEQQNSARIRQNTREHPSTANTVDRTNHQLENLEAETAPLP

Structure (SMILES): NCc1cccc(C(=O)N[C@@H]2CCC3C4Cc5ccc(O)c6c5[C@@]3(CCN4CC3CC3)C2O6)c1 (stereo partly drawn) [MP1207, 3-(Aminomethyl)-N-((7R,12bS)−3-(cyclopropylmethyl)−9-hydroxy-2,3,4,4a,5,6,7,7a-octahydro-1H-4,12-methanobenzofuro[3,2-e]isoquinolin-7-yl)benzamide]
- arrestin recruitment at mMOR (in words) (mMOR): No recruitment of βarrestin-2
- Ki (α2C-adrenoreceptors): 2980 nM
- Ki (MOR [1]): 0.39 nM
- EC50 (DOR; EC50 cAMP inhibition hDOR): 11.4 nM
- Emax (DOR; HEK-293T, read-out: Emax% cAMP inhibition hDOR): 38 ± 2%
- Emax (MOR [2]; HEK-293T, read-out: Emax% cAMP inhibition hMOR): 33 ± 1.4%
- EC50 (MOR [2]; pEC50 cAMP inhibition hMOR): 0.0339 nM
